Reference: patent publication US10780092B2, “Fused pyrazine derivatives useful as soluble guanylate cyclase stimulators” (Merck Sharp & Dohme Corp., priority 2016, dated 2020)

How the values were obtained:
[1] = target: human recombinant sGC enzyme (Homo sapiens (Human), UniProt Q02108+Q02153); test: SEC competition binding assay with [3H] Compound B radioligand; conditions: displacement of 1.6 nM [3H] Compound B, 24 h at 37° C.
Description: The binding potencies of sGC compounds to the human recombinant sGC enzyme were determined in a Size Exclusion Chromatography (SEC) competition binding assay using [^3H] Compound B as the radioligand. [^3H] Compound B was prepared using a standardardized tritium exchange procedure. The parent (non-labeled) molecule was first iodinated then a Pd-catalyzed iodine to tritium exchange provided the labeled compound.
Method: The binding buffer was composed of 50 mM triethanolamine pH 7.4, 3 mM MgCl2, 0.025% BSA, 2 mM dithiothreitol (DTT), 300 μM DETA/NO and 400 μM GTP. Assays were conducted in 96-well plates in a total volume of 200 μL. Recombinant human sGC protein (40 ng) was incubated with 1.6 nM [^3H] Compound B for 24 h at 37° C. in the presence and absence of various concentrations of sGC testing compounds delivered as DMSO solutions to give a total of 1% organic solvent content. Non-specific binding was defined by competition with 1 μM of Compound B. After the incubation period, the binding mixtures were loaded onto the gel-filtration plate (ThermoFischer Cat. No. 89808) pre-equilibrated with binding buffer and spun at 1000×g for 3 min at 4° C. on a Bench top centrifuge. The collected eluates in White Frame Clear Well Isoplates (Perkin Elmer Cat #6005040) received 100 μl of UltimaGold scintillation cocktail. The sealed plates were shaken vigorously and span, and counted after 6 hs with a Wallac Microbeta TriLux 1450 LSC & Luminescence Counter (Perkin Elmer). Data from competition experiments were analyzed to determine Ki values using one site—fit Ki equation.

sGC α1/β1 heterodimer = sGC α1/β1 heterodimer (Homo sapiens (Human), UniProt Q02108+Q02153); test: Cell-based sGC functional assay (CASA assay), cGMP by HTRF; conditions: CHO-K1/sGC cells; for Emax: CHO-K1, cGMP production as percentage of maximum of compound A (set to 100%), read-out: % Activation; for EC50: inflection point of cGMP production, 4P fit, read-out: IP
Description: Cell-Based sGC Functional Assay (Cyclic GMP Assay for sGC Activator: CASA Assay)
Soluble guanylate cyclase (sGC) is a heme-containing enzyme that converts GTP to secondary messenger cGMP. Increases in cGMP levels affect several physiological processes including vasorelaxation through multiple downstream pathways. […] Heme-dependent activators (HDAs) preferentially target sGC containing a ferrous heme group. To determine the effect of sGC activators on enzyme activity, the CASA assay was developed to monitor the generation of cGMP in a cell line that stably expresses the heterodimeric sGC protein.
A CHO-K1 cell line stably expressing the sGC α1/β1 heterodimer was generated using a standard transfection protocol. The cDNA's encoding human sGC α1 and β1 were cloned in pIRES hyg and pIRES neo respectively using standard molecular biology techniques. The plasmids pIRES hyg and pIRES neo plasmids were obtained from Clontech. CHO-K1 cells were transfected with plasmids pIREShyg-hsGCα1 and pIRESneo-hsGCβ1 simultaneously using FUGENE reagent. Clones that stably express both subunits were selected with hygromycin and neomycin for ˜2 weeks. The clone chosen for the assay was designated CHO-K1/sGC. CHO-K1/sGC cells were maintained in F-K12 medium containing 10% heat-inactivated Fetal Bovine Serum (FBS), 100 μg/mL penicillin/streptomycin, 0.5 mg/mL hygromycin and 0.25 mg/mL G418. The cells were then cryopreserved in liquid nitrogen. On the day of the assay, the cells were thawed and resuspended in EBSS Assay Buffer (Sigma, E3024) supplemented with 5 mM MgCl2, 10 mM HEPES (4-(2-hydroxyethyl)piperazine-1-ethanesulfonic acid) and 0.05% BSA (bovine serum albumin) and cell density was then adjusted to 2.25×10^5/mL with EAB. IBMX (3-isobutyl-1-methylxanthin, 0.5 mM) was added to inhibit degradation of cGMP. Compounds were diluted from DMSO stock solutions and added to the assay at a final DMSO concentration of 2.5%. Cells were pre-incubated in the presence and absence of 1 μM of Diethylenetriamine/nitric oxide adduct (DETA-NO; Sigma, 17018) for 30 min at 25° C. Compounds were subsequently added and incubated for 1 hr at 37° C. At the end of the incubation period, the reaction was terminated and the cells were lysed with the detection reagents from Cisbio Kits. The level of intracellular cGMP was determined using an HTRF-based assay kit (CisBio, 62GM2PEC), which detects the displacement of a fluorescence labeled cGMP from its specific antibody. The cGMP produced by test compounds was directly compared to the maximum cGMP production (this value was set to equal 100% activation) of the published sGC compound A (Example 1 in WO 2010/065275, published Jun. 10, 2010).
The test compounds' activities were then expressed as a percentage of compound A, the standard in every experiment. This percent activation was calculated either in the presence or absence of DETA-NO which was then plotted. Inflection points (IP) and maximum fold induction was derived using Abase analysis software for 4P fit.

## CC1(c2cc(O)c(Cl)c(F)c2)C(=O)Nc2nc(-c3cn4ncnc4c(Cc4ccccc4F)n3)nc(N)c21 (stereo not drawn) [Example 10-B, 4-Amino-5-(4-chloro-3-fluoro-5-hydroxyphenyl)-2-{8-[(2-fluorophenyl)methyl]-[1,2,4]triazolo[1,5-a]pyrazin-6-yl}-5-methyl-5,7-dihydro-6H-pyrrolo[2,3-d]pyrimidin-6-one]
[1]
  Ki: 0.128 nM
sGC α1/β1 heterodimer
  Emax: 132%
  EC50: 25 nM

## CC1(c2cc(O)c(Cl)c(F)c2)C(=O)Nc2nc(-c3cn4ccnc4c(CC4CCCCC4)n3)nc(N)c21 (stereo not drawn) [Example 12-B, 4-Amino-5-(4-chloro-3-fluoro-5-hydroxyphenyl)-2-(8-(cyclohexylmethyl)imidazo[1,2-a]pyrazin-6-yl)-5-methyl-5,7-dihydro-6H-pyrrolo[2,3-d]pyrimidin-6-one]
[1]
  Ki: 0.153 nM
sGC α1/β1 heterodimer
  Emax: 116%
  EC50: 98 nM

## CC1(c2cc(O)c(C#N)c(F)c2)C(=O)Nc2nc(-c3cn4ncnc4c(CC4CCCCC4)n3)nc(N)c21 (stereo not drawn) [Example 15-B, 4-(4-Amino-2-(8-(cyclohexylmethyl)-[1,2,4]triazolo[1,5-a]pyrazin-6-yl)-5-methyl-6-oxo-6,7-dihydro-5H-pyrrolo[2,3-d]pyrimidin-5-yl)-2-fluoro-6-hydroxybenzonitrile]
[1]
  Ki: 0.158 nM
sGC α1/β1 heterodimer
  Emax: 107%
  EC50: 771 nM

## CC1(c2cc(O)c(Cl)c(F)c2)C(=O)Nc2nc(-c3cn4ccnc4c(Cc4cc(F)cc(F)c4)n3)nc(N)c21 (stereo not drawn) [Example 16-B, 4-Amino-5-(4-chloro-3-fluoro-5-hydroxyphenyl)-2-{8-[(3,5-difluorophenyl)methyl]imidazo[1,2-a]pyrazin-6-yl}-5-methyl-5,7-dihydro-6H-pyrrolo[2,3-d]pyrimidin-6-one]
[1]
  Ki: 0.158 nM
sGC α1/β1 heterodimer
  Emax: 94%
  EC50: 308 nM

## CC1(c2ccc(C(F)(F)F)c(O)c2)C(=O)Nc2nc(-c3cn4ccnc4c(Cc4cccc(F)c4)n3)nc(N)c21 (stereo not drawn) [Example 17-B, 4-Amino-2-{8-[(3-fluorophenyl)methyl]imidazo[1,2-a]pyrazin-6-yl}-5-(3-hydroxy-4-(trifluoromethyl)phenyl)-5-methyl-5,7-dihydro-6H-pyrrolo[2,3-d]pyrimidin-6-one]
[1]
  Ki: 0.163 nM
sGC α1/β1 heterodimer
  Emax: 117%
  EC50: 482 nM

## CC1(c2ccc(Cl)c(O)c2)C(=O)Nc2nc(-c3cn4ccnc4c(Cc4cc(F)ccc4F)n3)nc(N)c21 (stereo not drawn) [Example 19-A, 4-Amino-5-(4-chloro-3-hydroxyphenyl)-2-{8-[(2,5-difluorophenyl)methyl]imidazo[1,2-a]pyrazin-6-yl}-5-methyl-5,7-dihydro-6H-pyrrolo[2,3-d]pyrimidin-6-one]
[1]
  Ki: 0.17 nM
sGC α1/β1 heterodimer
  Emax: 152%
  EC50: 78 nM

## CC1(c2ccc(Cl)c(O)c2)C(=O)Nc2nc(-c3cn4ccnc4c(Cc4ccc(F)c(F)c4)n3)nc(N)c21 (stereo not drawn) [Example 20-A, 4-Amino-5-(4-chloro-3-hydroxyphenyl)-2-{8-[(3,4-difluorophenyl)methyl]imidazo[1,2-a]pyrazin-6-yl}-5-methyl-5,7-dihydro-6H-pyrrolo[2,3-d]pyrimidin-6-one]
[1]
  Ki: 0.173 nM
sGC α1/β1 heterodimer
  Emax: 130%
  EC50: 127 nM

## CC1(c2cc(O)c(Cl)c(F)c2)C(=O)Nc2nc(-c3cn4ncnc4c(CC4CCCCC4)n3)nc(N)c21 (stereo not drawn) [Example 21-B, 4-Amino-5-(4-chloro-3-fluoro-5-hydroxyphenyl)-2-(8-(cyclohexylmethyl)-[1,2,4]triazolo[1,5-a]pyrazin-6-yl)-5-methyl-5,7-dihydro-6H-pyrrolo[2,3-d]pyrimidin-6-one]
[1]
  Ki: 0.206 nM
sGC α1/β1 heterodimer
  Emax: 143%
  EC50: 95 nM

## CC1(c2ccc(F)c(O)c2)C(=O)Nc2nc(-c3cn4ccnc4c(Cc4ccc(F)cc4F)n3)nc(N)c21 (stereo not drawn) [Example 22-B, 4-Amino-2-{8-[(2,4-difluorophenyl)methyl]imidazo[1,2-a]pyrazin-6-yl}-5-(4-fluoro-3-hydroxyphenyl)-5-methyl-5,7-dihydro-6H-pyrrolo[2,3-d]pyrimidin-6-one]
[1]
  Ki: 0.214 nM
sGC α1/β1 heterodimer
  Emax: 128%
  EC50: 74 nM

## CC1(c2ccc(O)c(F)c2)C(=O)Nc2nc(-c3cn4ccnc4c(Cc4ccccc4F)n3)nc(N)c21 (stereo not drawn) [Example 24-B, 4-Amino-5-(3-fluoro-4-hydroxyphenyl)-2-{8-[(2-fluorophenyl)methyl]imidazo[1,2-a]pyrazin-6-yl}-5-methyl-5,7-dihydro-6H-pyrrolo[2,3-d]pyrimidin-6-one]
[1]
  Ki: 0.241 nM
sGC α1/β1 heterodimer
  Emax: 88%
  EC50: 752 nM

## CC1(c2ccc(Cl)c(O)c2)C(=O)Nc2nc(-c3cn4ncnc4c(Cc4ccc(F)cc4)n3)nc(N)c21 (stereo not drawn) [Example 26-A, 4-Amino-5-(4-chloro-3-hydroxyphenyl)-2-{8-[(4-fluorophenyl)methyl]-[1,2,4]triazolo[1,5-a]pyrazin-6-yl}-5-methyl-5,7-dihydro-6H-pyrrolo[2,3-d]pyrimidin-6-one]
[1]
  Ki: 0.276 nM
sGC α1/β1 heterodimer
  Emax: 105%
  EC50: 426 nM

## CC1(c2cc(O)c(C#N)c(F)c2)C(=O)Nc2nc(-c3cn4ncnc4c(Cc4cc(F)cc(F)c4)n3)nc(N)c21 (stereo not drawn) [Example 27-B, 4-(4-Amino-2-{8-[(3,5-difluorophenyl)methyl]-[1,2,4]triazolo[1,5-a]pyrazin-6-yl}-5-methyl-6-oxo-6,7-dihydro-5H-pyrrolo[2,3-d]pyrimidin-5-yl)-2-fluoro-6-hydroxybenzonitrile]
[1]
  Ki: 0.28 nM
sGC α1/β1 heterodimer
  Emax: 94%
  EC50: 489 nM

## CC1(c2ccc(Cl)c(O)c2)C(=O)Nc2nc(-c3cn4ccnc4c(Cc4ccc(F)cc4)n3)nc(N)c21 (stereo not drawn) [Example 30-A, 4-Amino-5-(4-chloro-3-hydroxyphenyl)-2-{8-[(4-fluorophenyl)methyl]imidazo[1,2-a]pyrazin-6-yl}-5-methyl-5,7-dihydro-6H-pyrrolo[2,3-d]pyrimidin-6-one]
[1]
  Ki: 0.292 nM
sGC α1/β1 heterodimer
  Emax: 88%
  EC50: 866 nM

## CC1(c2cccc(O)c2)C(=O)Nc2nc(-c3cn4ccnc4c(Cc4ccc(F)cc4)n3)nc(N)c21 (stereo not drawn) [Example 31-B, 4-Amino-2-{8-[(4-fluorophenyl)methyl]imidazo[1,2-a]pyrazin-6-yl}-5-(3-hydroxyphenyl)-5-methyl-5,7-dihydro-6H-pyrrolo[2,3-d]pyrimidin-6-one]
[1]
  Ki: 0.274 nM
sGC α1/β1 heterodimer
  Emax: 93%
  EC50: 82 nM

## CC(C)CCc1nc(-c2nc(N)c3c(n2)NC(=O)C3(C)c2cc(O)c(Cl)c(F)c2)cn2ccnc12 (stereo not drawn) [Example 32-B, 4-Amino-5-(4-chloro-3-fluoro-5-hydroxyphenyl)-2-(8-isopentylimidazo[1,2-a]pyrazin-6-yl)-5-methyl-5,7-dihydro-6H-pyrrolo[2,3-d]pyrimidin-6-one]
[1]
  Ki: 0.306 nM
sGC α1/β1 heterodimer
  Emax: 107%
  EC50: 648 nM
